# How the values were obtained:
# Type in all cases: in vivo, mouse
# [1] = tested on: Tg4-42 mice; assay: Spatial reference memory by Morris water maze in Tg4-42 mice; details: aged Tg4-42 mice, FIG. 31A
# Protocol: (§1) Tg4-42 mice were immunized at 6 weeks of age for 12 weeks with antigen [Thioacetal bridged Abeta peptide 1-14—KLH conjugate; DAC*[…]*HH[Cys]-amide (*S—CH—S bridged)] emulsified in complete Freund's adjuvant (CFA), followed by booster doses of protein emulsified in incomplete Freund's adjuvant (IFA). Booster injections of antigen emulsified in IFA was administered at day 14, day 28, day 42, thereafter monthly (3 times after month 4, 5 and 6), after immunization with antigen/CFA emulsion. Mice were acclimated at our facility for at least 7 days before immunization. Mice were injected with antigen emulsified in CFA or IFA subcutaneously at two sites on the back, injecting 0.05 to 0.1 mL at each site (total of 0.1 to 0.2 mL per mouse). […]
# Spatial reference memory in mice was evaluated using the Morris water maze (R. Morris, Developments of a water-maze procedure for studying spatial learning in the rat. J. Neurosci. Methods 11, 47-60 (1984)) as described previously (Y. Bouter et al., N-truncated amyloid beta (Abeta) 4-42 forms stable aggregates and induces acute and long-lasting behavioral deficits. Acta Neuropathol 126, 189-205 (2013)).
# (§2) The treatment effect of active immunization was assessed in 6.5 month old Tg4-42 mice on hippocampus-dependent learning and memory by the Morris water maze test (FIG. 31A) and by counting the total number of CA1 neurons in the hippocampus (FIG. 31B). […]
# [2] = tested on: 5XFAD mice; assay: Active immunisation, 18F-Florbetaben-PET/MRI amyloid-plaque imaging in 5XFAD mice; details: immunized 5XFAD mice, cortex, hippocampus and amygdala
# Protocol: 5XFAD mice were immunized at 6 weeks of age for 12 weeks with antigen [Thioacetal bridged amyloid-beta peptide 1-14—KLH conjugate; DAC*[…]*HH[Cys]-amide (*S—CH—S bridged, cyclised via positions 3 and 12)] emulsified in complete Freund's adjuvant (CFA), followed by booster doses of protein emulsified in incomplete Freund's adjuvant (IFA). Mice were acclimated at our facility for at least 7 days before immunization. Mice were injected with antigen emulsified in CFA subcutaneously at two sites on the back, injecting 0.05 to 0.1 mL at each site (total of 0.1 to 0.2 mL per mouse).
# Booster injections of antigen emulsified in IFA was administered at day 14, day 28, day 42 and 10 weeks after immunization with antigen/CFA emulsion. The booster is given as a single subcutaneous injection with 0.1 mL of IFA emulsion, at one site on the back. […]
# All images were analyzed using PMOD v3.9 (PMOD Technologies, Switzerland) as described before (Bouter et al). […] PET VOI statistics (kBq/cc) were generated for all brain areas and standardized uptake values (SUVs) were calculated [SUV=tissue activity concentration average (kBq/cc)×body weight (g)/injected dose (kBq)] for semi-quantitative analysis. SUVs of 18F-FDG-PET scans were corrected for measured blood glucose levels [SUVGIc=SUV x blood glucose level (mg/dl)]. […]
# [3] = tested on: Tg4-42 mice; assay: Quantification of CA1 neuron numbers by unbiased stereology in Tg4-42 mice; details: aged Tg4-42 mice
# Protocol: as §1, with “immunization.” for “immunization. Mice were injected with antigen emulsified in CFA or IFA subcutaneously at two sites on the back, injecting 0.05 to 0.1 mL at each site (total of 0.1 to 0.2 mL per mouse).”
# Stereological analysis was performed as previously described (G. Antonios et al., Alzheimer therapy with an antibody against N-terminal Abeta 4-X and pyroglutamate Abeta 3-X. Scientific reports 5, 17338 (2015)). The hippocampal cell layer CA1 (Bregma −1.22 to −3.52 mm) was delineated on cresyl violet-stained sections and analysed with a stereology workstation (Olympus BX51 with a motorized specimen stage for automatic sampling), StereoInvestigator 7 (MicroBrightField, Williston, USA) and a 100x oil lens (NA=1.35).
# as §2
substance,measurement,setting,value
"DAC*FRHDSGYEC*HH[Cys]-amide (*S—CH—S bridged, cyclised via positions 3 and 12)","learning and memory deficits, Morris water maze probe trial",[1]; listed as 3-12 linked A61-14 cyclic peptide,substantial rescue of learning and memory deficits
same,"learning and memory deficits, Morris water maze probe trial",[1]; listed as cylised Aβ peptide,rescued memory deficits
same,amyloid-plaque signal (fluorbetaben retention),[2],drastically reduced
same,loss / number of CA1 neurons (in words),[3]; FIG. 31B,significantly reduced loss of neurons
same,mean number (+SEM) of neurons in CA1 layer of hippocampus,[3]; IgG1 treated control 128687+13035,185858+39180
